From publication PMC7448123, “Ru(II) Complexes Bearing O, O-Chelated Ligands Induced Apoptosis in A549 Cells through the Mitochondrial Apoptotic Pathway” (Bioinorganic Chemistry and Applications, 2020)

Experiments:
MCF-7 (breast cancer) = assay: MTT cytotoxicity assay, MCF-7; type: cell-based, human; conditions: 48 h
Protocol: (§1) All cell lines were cultured in Roswell Park Memorial Institute 1640 culture media supplemented with 10% fetal bovine serum and incubated at 37°C in a 5% CO2 incubator. The IC50 values in Table 1 were measured by MTT assay according to our previous report [16].
(§2) The cell viability was obtained by the MTT assay.

[1] = tested on: HepG2 (human hepatocellular carcinoma); assay: MTT cytotoxicity assay, HepG2; type: cell-based; conditions: 48 h
Protocol: as §1, §2

[2] = tested on: A549 (human lung carcinoma); assay: MTT cytotoxicity assay, A549; type: cell-based; conditions: 48 h; for IC50: MTT
Protocol: as §1, §2

[3] = tested on: BEAS-2B (immortalized human bronchial epithelial cells); assay: MTT cytotoxicity assay, normal BEAS-2B; type: cell-based; conditions: 48 h
Protocol: as §1, §2

[4] = tested on: HeLa (human cervical cancer); assay: MTT cytotoxicity assay, HeLa; type: cell-based; conditions: 48 h
Protocol: as §1, §2

N.N.[Cl][Pt][Cl] [Cisplatin]
IC50 (MCF-7 (breast cancer)): 16.2 ± 2 µM
IC50 [1]: 30.2 ± 2 µM
SI (selectivity index) = IC50 (BEAS-2B)/IC50 (A549) [2]: 0.8
IC50 [2]: 27.2 ± 1.4 µM
IC50 [3]: 21.4 ± 1.5 µM
IC50 [4]: 18.3 ± 1.2 µM

[Cl-].[Cl-].[Ru+2].c1ccc(-c2ccnc3c2ccc2c(-c4ccccc4)ccnc23)cc1.c1ccc(-c2ccnc3c2ccc2c(-c4ccccc4)ccnc23)cc1 [Ru(dip)2Cl2, cis-[Ru(dip)2Cl2]]
IC50 (MCF-7 (breast cancer)): 135 ± 7.9 µM
IC50 [1]: 108 ± 5.4 µM
IC50 [2]: 138 ± 6.7 µM
IC50 [4]: 116 ± 6.8 µM

Cc1ccc2ccc3ccc(C)nc3c2n1.Cc1ccc2ccc3ccc(C)nc3c2n1.[Cl-].[Cl-].[Ru+2] [Ru(dmp)2Cl2, cis-[Ru(dmp)2Cl2]]
IC50 (MCF-7 (breast cancer)): > 200 µM
IC50 [1]: 169 ± 6.2 µM
IC50 [2]: > 200 µM
IC50 [4]: > 200 µM
